Data from PubChem BioAssay (NCI).
Where “and” joins values, the source holds several entries; their conditions need not be identical. Equal values may be shown once.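 Results reflect a 48-hour exposure of cells in 96-well plates to compound at five concentrations. The concentration for 50% growth inhibition is given as GI50. At the TGI there is no net growth.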

Experiments:
Experiment in all cases: NCI anticancer screen, dose series, 48 h
UACC-62 melanoma = system: UACC-62 melanoma
EKVX NSCLC = system: EKVX NSCLC
ACHN renal = system: ACHN renal
SK-OV-3 ovarian = system: SK-OV-3 ovarian
SK-MEL-28 melanoma = system: SK-MEL-28 melanoma
SK-MEL-2 melanoma = system: SK-MEL-2 melanoma
U251 CNS = system: U251 CNS
IGROV1 ovarian = system: IGROV1 ovarian
MCF7 breast = system: MCF7 breast
SNB-75 CNS = system: SNB-75 CNS

| Structure (SMILES) | GI50 (UACC-62 melanoma) | TGI (UACC-62 melanoma) | GI50 (EKVX NSCLC) [µM] | TGI (EKVX NSCLC) [µM] | GI50 (ACHN renal) | TGI (ACHN renal) [µM] | GI50 (SK-OV-3 ovarian) | TGI (SK-OV-3 ovarian) [µM] | GI50 (SK-MEL-28 melanoma) | TGI (SK-MEL-28 melanoma) [µM] | GI50 (SK-MEL-2 melanoma) | TGI (SK-MEL-2 melanoma) | GI50 (U251 CNS) | TGI (U251 CNS) | GI50 (IGROV1 ovarian) | TGI (IGROV1 ovarian) | GI50 (MCF7 breast) | TGI (MCF7 breast) [µM] | GI50 (SNB-75 CNS) | TGI (SNB-75 CNS) |
| --- | --- | --- | --- | --- | --- | --- | --- | --- | --- | --- | --- | --- | --- | --- | --- | --- | --- | --- | --- | --- |
| CCN(CC)CCCNCc1cc(-c2ccccc2)nc2ccccc12 | 2.55 µM | 8.37 µM | 89.2 | > 100 | 33.3 µM | > 100 | 52.1 µM | > 100 | 10.2 µM | 22.4 | 10.2 µM | 22.9 µM | 4.16 µM | 19.4 µM | 23.1 µM | > 100 µM | 4120 nM | 16.9 | 12.3 µM | 35.8 µM |
| COc1cc(-c2cc(O)c(-c3ccc4ccccc4n3)c(=O)[nH]2)cc(OC)c1OC |  | > 67.9 µM |  | > 100 |  | > 89.8 |  | > 73.2 |  | > 100 |  | > 78.9 µM |  | > 48.2 µM |  | > 78.8 µM |  | > 100 |  | 46.1 µM |
| CCOC(=O)c1cc2c(cc1Cl)SC(N(c1ccc(OC)cc1)S(=O)(=O)c1ccc(Cl)cc1)=NS2(=O)=O | 34.6 µM | > 100 µM | 41.7 | > 100 | 35 µM | > 100 | > 100 µM | > 100 | 20.8 µM | 59.9 | 24.7 µM | > 100 µM | 29.1 µM | 88.4 µM | 49.6 µM | > 100 µM | 25600 nM | 68.2 | 23.3 µM | 90.4 µM |
| Cc1nc(-c2cn3c(n2)-c2ccc(-c4cnn(C(C)(C)C(N)=O)c4)cc2OCC3)n(C(C)C)n1 | 0.321 µM and 0.246 µM | 3.64 µM and 4.39 µM | 1.48 | > 10 | 0.647 µM and 1.33 µM | > 100 | < 0.0126 µM and 0.0162 µM | 0.137 | 0.535 µM and 0.414 µM | > 38.3 | 4.25 µM and 4.74 µM | 24.2 µM and > 10 µM | 0.68 µM and 1.51 µM | 25.4 µM and > 10 µM | < 0.0106 µM and 0.00612 µM | 0.0829 µM and 0.0677 µM | < 10 nM and 9.91 nM | > 50.5 | 0.0204 µM and 0.0142 µM | 2.63 µM and > 2.63 µM |
| O=C(COc1cc(O)c2c(=O)cc(-c3ccccc3)oc2c1)Nc1ccccc1C(F)(F)F | 6.58 µM | > 100 µM | 9.37 | 62.4 | 2.91 µM | 9.63 | 14.9 µM | 50.7 |  |  | 15.1 µM | 38 µM | 2.01 µM | 4.45 µM | 3.61 µM | 15.9 µM | 7400 nM | > 100 | 1.65 µM | 4.41 µM |
| Nc1nnnn1CCO |  | > 100 µM |  | > 100 |  | > 100 |  | > 100 |  | > 100 |  | > 100 µM |  | > 100 µM |  | > 100 µM |  | > 100 |  | > 100 µM |
| CC(=O)c1c(C)[nH]c(-c2nc3ccc(N4CCN(C)CC4)cc3[nH]2)c1-c1ccc(N(C)C)cc1 | 0.175 µM | 13 µM | 4.81 | > 100 | 0.773 µM | 12.6 | 0.465 µM | 3.65 | 2.47 µM | 18.7 | 2.58 µM | 17.6 µM | 2.11 µM | > 65.5 µM | 0.936 µM | 12.3 µM | 240 nM | 7.78 | 0.0456 µM | 1.74 µM |
| N=c1ccn(O)cc1/C=C1/C(=O)Nc2ccccc21 | > 100 µM | > 100 µM | > 100 | > 100 | > 100 µM | > 100 | > 100 µM | > 100 | > 100 µM | > 100 | > 100 µM | > 100 µM | > 100 µM | > 100 µM | > 100 µM | > 100 µM | > 100000 nM | > 100 | > 100 µM | > 100 µM |
| CCC(=C/[C@H](C)C/C=C/C(C)=C/[C@@H](C)C(=O)[C@@H](C)[C@H](O)[C@@H](C)CC)/C=C/[C@@H]1OC(=O)C=C[C@H]1C | < 0.01 µM |  | < 0.01 | 13 | < 0.01 µM | 1.11 | < 0.01 µM | < 0.0115 | < 0.01 µM | 1.58 | < 0.01 µM | < 0.01 µM | < 0.01 µM |  | < 0.01 µM |  | < 10 nM | 1.23 | < 0.01 µM | < 0.0465 µM |
| C/C(=N\NS(=O)(=O)c1ccc(C)cc1)P(=O)(O)O |  | > 100 µM |  | > 100 |  | > 100 |  | > 100 |  | > 100 |  | > 100 µM |  | > 100 µM |  | > 100 µM |  | > 100 |  | > 100 µM |
| Clc1ccc(-c2c3c(nn2-c2ccccn2)CCc2ccccc2-3)cc1Cl | > 100 µM | > 100 µM | > 100 | > 100 | 74 µM | > 100 | > 100 µM | > 100 | > 100 µM | > 100 | > 100 µM | > 100 µM | > 100 µM | > 100 µM | > 100 µM | > 100 µM | > 100000 nM | > 100 | 67.6 µM | > 100 µM |
| COc1cccc(NC(=O)c2sc3nc(C)c(C(O)c4ccccc4)cc3c2N)c1 (configuration not stated) | 0.503 µM | 17.3 µM | 0.76 | 34.8 | 0.601 µM | 18.2 | 0.658 µM | 23.8 | 3.65 µM | 35.3 | 0.96 µM | 29.7 µM | 0.289 µM | 22.3 µM | 0.441 µM | 16.8 µM | 69.8 nM | 13.9 | 0.174 µM | 4.55 µM |
| CC(C)=CCC[C@](C)(O)[C@H]1CC[C@]2(C)[C@@H]1CC[C@@H]1[C@@]3(C)CC/C(=N/O)C(C)(C)[C@@H]3CC[C@]12C | 17.8 µM | > 100 µM | 10.1 | > 100 | 11.6 µM | 35.7 | 25.7 µM | > 100 | 26.5 µM | > 100 | 15.3 µM | 60.5 µM | 12.8 µM | 49.4 µM | 20 µM | 76.6 µM | 4200 nM | > 100 | 25.4 µM | > 100 µM |
| COCc1cc(C(=O)Nc2cc([C@H]3CC[C@@H](OC(=O)NC(C)C)C3)[nH]n2)n(C)n1 | 11.5 µM | 36.4 µM | 19.1 | 85.8 | 11.1 µM | > 100 | 28.6 µM | 96.2 | 14.9 µM | 85 | 10.6 µM | 27.2 µM | 8.94 µM | > 100 µM | 4.74 µM | > 100 µM | 2530 nM | > 100 | 3.86 µM | 22.4 µM |
| O=C(c1ccccc1)C1OC1c1ccc([N+](=O)[O-])cc1 (configuration not stated) | 11.3 µM | 42.5 µM | 22.8 | > 100 | 6.08 µM | > 100 | 29.1 µM | 90.3 | 24.8 µM | > 100 | 5.88 µM | 34.9 µM | 9.86 µM | > 100 µM | 3.01 µM | 11.6 µM | 3160 nM | > 100 | 2.92 µM | 72.7 µM |
| COc1cc(NCCCN=C(N)NC(N)=NC(C)C)c2ncccc2c1 | 12.2 µM | 33 µM | 4.73 | 22 | > 82.8 µM | > 100 | > 74.8 µM | > 100 | 13.6 µM | 35.2 | 2.68 µM | 10.1 µM | 6.41 µM | > 45.1 µM | 0.467 µM | 3.77 µM |  | 0.0718 | 4.81 µM | 28.5 µM |
| C[C@@]12CCC[C@@](C)(C(=O)O)C1CC[C@]13C[C@@](O)(CO)[C@](O)(CCC12)C3 (some centres not stated) | > 100 µM | > 100 µM | > 100 | > 100 | > 100 µM | > 100 | > 100 µM | > 100 | > 100 µM | > 100 | > 100 µM | > 100 µM | > 100 µM | > 100 µM | > 100 µM | > 100 µM | > 100000 nM | > 100 | > 100 µM | > 100 µM |
| CN(Cc1ccccc1)c1ccc(CO)c(Cl)c1 | 0.384 µM | 3.93 µM | 22 | 98.8 | 57.2 µM | > 100 | 8.99 µM | 52 | 50.5 µM | > 100 | 8.78 µM | 49.2 µM | 4.55 µM | > 90.8 µM | 0.467 µM | 3.01 µM | 1490 nM | 40.3 | 22.4 µM | > 80.7 µM |
| CCN(CC)CC(O)CNc1c2ccc([N+](=O)[O-])cc2nc2cc(OC)c(OC)cc12 (configuration not stated) | 0.453 µM | 1.8 µM | 0.336 | 1.85 | 0.396 µM | 2.36 | 0.535 µM | 2.84 | 0.47 µM | 1.93 | 0.256 µM | 0.659 µM |  |  | 0.305 µM | 1.51 µM | 53.4 nM | 0.761 | 0.488 µM | 1.88 µM |
